{
  "source": "patent US10597380B2",
  "about": "“Pyridazinone-based broad spectrum anti-influenza inhibitors” (Hoffmann-La Roche Inc., priority 2017, dated 2020)",
  "data": [
    {"test_system": "Influenza A/WSN/33-Luciferase virus", "assay": "microbe, parasite or virus in culture", "type": "cell-based", "conditions": "A549, 72 h, luciferase signal three days later, read-out: IC50 antiviral activity (Luciferase reporter assay)", "units": {"IC50": "nM"}, "values": [
      {"smiles": "O=C(O)C1CCN(CCn2cccc(Nc3nn(-c4ccc(OC(F)(F)F)cc4)c(=O)c4c3CCC4)c2=O)C1", "note": "(stereo not drawn) [Example 120, 1-[2-[2-oxo-3-[[4-oxo-3-[4-(trifluoromethoxy)phenyl]-6,7-dihydro-5H-cyclopenta[d]pyridazin-1-yl]amino]-1-pyridyl]ethyl]pyrrolidine-3-carboxylic acid]", "IC50": 1120},
      {"smiles": "Cn1cccc(Nc2nn(-c3ccc(C(C)(C)C)nc3)c(=O)c3ccccc23)c1=O", "note": "[Example 8, 2-(6-tert-butyl-3-pyridyl)-4-[(1-methyl-2-oxo-3-pyridyl)amino]phthalazin-1-one]", "IC50": 73},
      {"smiles": "Cn1cccc(Nc2nn(-c3ccc(OC(F)(F)F)cc3)c(=O)c3c2CN(C=O)CC3)c1=O", "note": "[Example 154, 4-[(1-Methyl-2-oxo-3-pyridyl)amino]-1-oxo-2-[4-(trifluoromethoxy)phenyl]-7,8-dihydro-5H-pyrido[3,4-d]pyridazine-6-carbaldehyde]", "IC50": 144},
      {"smiles": "Cn1cccc(Nc2nn(-c3ccc(C(F)(F)F)cc3)c(=O)c3c2CCC3)c1=O", "note": "[Example 60, 1-[(1-methyl-2-oxo-3-pyridyl)amino]-3-[4-(trifluoromethyl)phenyl]-6,7-dihydro-5H-cyclopenta[d]pyridazin-4-one]", "IC50": 11},
      {"smiles": "CCOC(=O)COCCn1cccc(Nc2nn(-c3ccc(OC(F)(F)F)cc3)c(=O)c3c2CCC3)c1=O", "note": "[Example 39, ethyl 2-[2-[2-oxo-3-[[4-oxo-3-[4-(trifluoromethoxy)phenyl]-6,7-dihydro-5H-cyclopenta[d]pyridazin-1-yl]amino]-1-pyridyl]ethoxy]acetate]", "IC50": 230},
      {"smiles": "C=Cc1ccc2c(Nc3cccn(C)c3=O)nn(-c3ccc(OC(F)(F)F)cc3)c(=O)c2c1", "note": "[Example 84, 4-[(1-methyl-2-oxo-3-pyridyl)amino]-2-[4-(trifluoromethoxy)phenyl]-7-vinyl-phthalazin-1-one]", "IC50": 176},
      {"smiles": "Cn1cccc(Nc2nn(-c3ccc(C(C)(C)C)nc3)c(=O)c3c2CCCC3)c1=O", "note": "[Example 26, 2-(6-tert-butyl-3-pyridyl)-4-[(1-methyl-2-oxo-3-pyridyl)amino]-5,6,7,8-tetrahydrophthalazin-1-one]", "IC50": 25},
      {"smiles": "CC(=O)N1CCc2c(c(Nc3cccn(C)c3=O)nn(-c3ccc(OC(F)(F)F)cc3)c2=O)C1", "note": "[Example 149, 6-Acetyl-4-[(1-methyl-2-oxo-3-pyridyl)amino]-2-[4-(trifluoromethoxy)phenyl]-7,8-dihydro-5H-pyrido[3,4-d]pyridazin-1-one]", "IC50": 71},
      {"smiles": "CN(C)C(=O)COCCn1cccc(Nc2nn(-c3ccc(OC(F)(F)F)cc3)c(=O)c3ccccc23)c1=O", "note": "[Example 103, N,N-dimethyl-2-[2-[2-oxo-3-[[4-oxo-3-[4-(trifluoromethoxy)phenyl]phthalazin-1-yl]amino]-1-pyridyl]ethoxy]acetamide]", "IC50": 38},
      {"smiles": "CC(O)CN1CCc2c(Nc3cccn(C)c3=O)nn(-c3ccc(OC(F)(F)F)cc3)c(=O)c2C1", "note": "(stereo not drawn) [Example 145, 6-(2-Hydroxypropyl)-1-[(1-methyl-2-oxo-3-pyridyl)amino]-3-[4-(trifluoromethoxy)phenyl]-7,8-dihydro-5H-pyrido[3,4-d]pyridazin-4-one]", "IC50": 129},
      {"smiles": "COC1CCN(CCn2cccc(Nc3nn(-c4ccc(OC(F)(F)F)cc4)c(=O)c4c3CCC4)c2=O)C1", "note": "(stereo not drawn) [Example 42, 1-[[1-[2-(3-methoxypyrrolidin-1-yl)ethyl]-2-oxo-3-pyridyl]amino]-3-[4-(trifluoromethoxy)phenyl]-6,7-dihydro-5H-cyclopenta[d]pyridazin-4-one]", "IC50": 40},
      {"smiles": "O=C(O)CCn1cccc(Nc2nn(-c3ccc(OC(F)(F)F)cc3)c(=O)c3ccccc23)c1=O", "note": "[Example 109, 3-[2-Oxo-3-[[4-oxo-3-[4-(trifluoromethoxy)phenyl]phthalazin-1-yl]amino]-1-pyridyl]propanoic acid]", "IC50": 842},
      {"smiles": "O=c1c(Nc2nn(-c3ccc(OC(F)(F)F)cc3)c(=O)c3c2CCC3)cccn1CCn1ccnc1", "note": "[Example 40, 1-[[1-(2-imidazol-1-ylethyl)-2-oxo-3-pyridyl]amino]-3-[4-(trifluoromethoxy)phenyl]-6,7-dihydro-5H-cyclopenta[d]pyridazin-4-one]", "IC50": 100},
      {"smiles": "Cn1cccc(Nc2nn(-c3ccc(OC(F)(F)F)cc3)c(=O)c3c2CN(S(C)(=O)=O)CC3)c1=O", "note": "[Example 157, 4-[(1-Methyl-2-oxo-3-pyridyl)amino]-6-methylsulfonyl-2-[4-(trifluoromethoxy)phenyl]-7,8-dihydro-5H-pyrido[3,4-d]pyridazin-1-one]", "IC50": 167},
      {"smiles": "CN(C)C(=O)CCCn1cccc(Nc2nn(-c3ccc(OC(F)(F)F)cc3)c(=O)c3ccccc23)c1=O", "note": "[Example 98, N,N-dimethyl-4-[2-oxo-3-[[4-oxo-3-[4-(trifluoromethoxy)phenyl]phthalazin-1-yl]amino]-1-pyridyl]butanamide]", "IC50": 10},
      {"smiles": "O=c1[nH]cccc1Nc1nn(-c2ccc(OC(F)(F)F)cc2)c(=O)c2ccccc12", "note": "[Example 2, 4-[(2-oxo-1H-pyridin-3-yl)amino]-2-[4-(trifluoromethoxy)phenyl]phthalazin-1-one]", "IC50": 54},
      {"smiles": "COc1ccc2c(Nc3cccn(C)c3=O)nn(-c3ccc(OC(F)(F)F)cc3)c(=O)c2c1", "note": "[Example 16, 7-methoxy-4-[(1-methyl-2-oxo-3-pyridyl)amino]-2-[4-(trifluoromethoxy)phenyl]phthalazin-1-one]", "IC50": 12},
      {"smiles": "CNC(=O)c1cc(Nc2nn(-c3ccc(OC(F)(F)F)cc3)c(=O)c3c2CCCC3)c(=O)n(C)c1", "note": "[Example 174, N,1-Dimethyl-6-oxo-5-[[4-oxo-3-[4-(trifluoromethoxy)phenyl]-5,6,7,8-tetrahydrophthalazin-1-yl]amino]pyridine-3-carboxamide]", "IC50": 14600},
      {"smiles": "Cn1cncc(Nc2nn(-c3ccc(OC(F)(F)F)cc3)c(=O)c3ccccc23)c1=O", "note": "[Example 66, 4-[(1-methyl-6-oxo-pyrimidin-5-yl)amino]-2-[4-(trifluoromethoxy)phenyl]phthalazin-1-one]", "IC50": 36},
      {"smiles": "O=c1c(Nc2nn(-c3ccc(OC(F)(F)F)cc3)c(=O)c3ccccc23)cccn1CCN1CC(O)(C(F)(F)F)C1", "note": "[Example 77, 4-[[1-[2-[3-hydroxy-3-(trifluoromethyl)azetidin-1-yl]ethyl]-2-oxo-3-pyridyl]amino]-2-[4-(trifluoromethoxy)phenyl]phthalazin-1-one]", "IC50": 108},
      {"smiles": "Cn1cccc(Nc2nn(-c3cnc(C(C)(C)C)nc3)c(=O)c3ccccc23)c1=O", "note": "[Example 9, 2-(2-tert-butylpyrimidin-5-yl)-4-[(1-methyl-2-oxo-3-pyridyl)amino]phthalazin-1-one]", "IC50": 275},
      {"smiles": "Cn1cccc(Nc2nn(-c3ccc(OC(F)(F)F)cc3)c(=O)c3cc(O)ccc23)c1=O", "note": "[Example 125, 7-Hydroxy-4-[(1-methyl-2-oxo-3-pyridyl)amino]-2-[4-(trifluoromethoxy)phenyl]phthalazin-1-one]", "IC50": 88},
      {"smiles": "O=c1c(Nc2nn(-c3ccc(OC(F)(F)F)cc3)c(=O)c3c2CCC3)cccn1CCNC1COC1", "note": "[Example 168, 1-[[1-[2-(Oxetan-3-ylamino)ethyl]-2-oxo-3-pyridyl]amino]-3-[4-(trifluoromethoxy)phenyl]-6,7-dihydro-5H-cyclopenta[d]pyridazin-4-one]", "IC50": 24},
      {"smiles": "O=c1c(Nc2nn(-c3ccc(OC(F)(F)F)cc3)c(=O)c3c2CCC3)cccn1C[C@@H]1CNCCO1", "note": "[Example 135, 1-[[1-[[(2S)-Morpholin-2-yl]methyl]-2-oxo-3-pyridyl]amino]-3-[4-(trifluoromethoxy)phenyl]-6,7-dihydro-5H-cyclopenta[d]pyridazin-4-one]", "IC50": 85},
      {"smiles": "CNC(=O)CCCn1cccc(Nc2nn(-c3ccc(OC(F)(F)F)cc3)c(=O)c3ccccc23)c1=O", "note": "[Example 97, N-methyl-4-[2-oxo-3-[[4-oxo-3-[4-(trifluoromethoxy)phenyl]phthalazin-1-yl]amino]-1-pyridyl]butanamide]", "IC50": 9},
      {"smiles": "Cn1cccc(Nc2nn(-c3ccc(OC(F)(F)F)cc3)c(=O)c3c2CCC(O)C3)c1=O", "note": "(stereo not drawn) [Example 164, 7-Hydroxy-4-[(1-methyl-2-oxo-3-pyridyl)amino]-2-[4-(trifluoromethoxy)phenyl]-5,6,7,8-tetrahydrophthalazin-1-one]", "IC50": 46},
      {"smiles": "CNC(=O)COCCn1cccc(Nc2nn(-c3ccc(OC(F)(F)F)cc3)c(=O)c3c2CCC3)c1=O", "note": "[Example 107, N-methyl-2-[2-[2-oxo-3-[[4-oxo-3-[4-(trifluoromethoxy)phenyl]-6,7-dihydro-5H-cyclopenta[d]pyridazin-1-yl]amino]-1-pyridyl]ethoxy]acetamide]", "IC50": 49},
      {"smiles": "O=C(O)C1CN(CCn2cccc(Nc3nn(-c4ccc(OC(F)(F)F)cc4)c(=O)c4c3CCC4)c2=O)CCO1", "note": "(stereo not drawn) [Example 122, 4-[2-[2-oxo-3-[[4-oxo-3-[4-(trifluoromethoxy)phenyl]-6,7-dihydro-5H-cyclopenta[d]pyridazin-1-yl]amino]-1-pyridyl]ethyl]morpholine-2-carboxylic acid]", "IC50": 3710},
      {"smiles": "CN1CCc2c(Nc3cccn(C)c3=O)nn(-c3ccc(OC(F)(F)F)cc3)c(=O)c2C1", "note": "[Example 132, 6-Methyl-1-[(1-methyl-2-oxo-3-pyridyl)amino]-3-[4-(trifluoromethoxy)phenyl]-7,8-dihydro-5H-pyrido[3,4-d]pyridazin-4-one]", "IC50": 87},
      {"smiles": "Cn1cccc(Nc2nn(-c3ccc(C(C)(C)O)cc3)c(=O)c3ccccc23)c1=O", "note": "[Example 162, 2-[4-(1-Hydroxy-1-methyl-ethyl)phenyl]-4-[(1-methyl-2-oxo-3-pyridyl)amino]phthalazin-1-one]", "IC50": 1400},
      {"smiles": "C=Cc1ccc2c(=O)n(-c3ccc(OC(F)(F)F)cc3)nc(Nc3cccn(C)c3=O)c2c1", "note": "[Example 83, 4-[(1-methyl-2-oxo-3-pyridyl)amino]-2-[4-(trifluoromethoxy)phenyl]-6-vinyl-phthalazin-1-one]", "IC50": 1490},
      {"smiles": "O=C(O)CCCn1cc(Cl)cc(Nc2nn(-c3ccc(OC(F)(F)F)cc3)c(=O)c3c2CCC3)c1=O", "note": "[Example 117, 4-[5-chloro-2-oxo-3-[[4-oxo-3-[4-(trifluoromethoxy)phenyl]-6,7-dihydro-5H-cyclopenta[d]pyridazin-1-yl]amino]-1-pyridyl]butanoic acid]", "IC50": 114},
      {"smiles": "COC(=O)C(C)(C)Cn1cccc(Nc2nn(-c3ccc(OC(F)(F)F)cc3)c(=O)c3ccccc23)c1=O", "note": "[Example 4, methyl 2,2-dimethyl-3-[2-oxo-3-[[4-oxo-3-[4-(trifluoromethoxy)phenyl]phthalazin-1-yl]amino]-1-pyridyl]propanoate]", "IC50": 489}
    ]}
  ]
}
